Measurements published in PubChem BioAssay AID977607 (Broad Institute, 2014).
The source made the active and inactive calls.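 Rule for the calls: active = curve reaches 40% activation over neutral controls at an AC40 no higher than the top valid tested concentration; inconclusive = no clear call, values can overlap the other calls; inactive = signal moving opposite to the expected increase, and the rest.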

System: INS-1E GLuc insulin secretion reporter, luminescence, 2-3 h
Assay: activators of glucose-dependent insulin secretion, dose response, cell-based, INS-1E, Gaussia luciferase, luminescence, cherry-pick, set 2 (AID 977607)

## N#Cc1sc2nc3c(c(-c4cccnc4)c2c1N)CCC3
  AC40: 26.5 µM

## N#Cc1c(-c2ccncc2)cc(-c2ccc(F)cc2)nc1N
  AC40: 2.96 µM

## COc1ccc2c(c1)CCc1c(C(=O)Nc3cc(C)n(Cc4ccc(Cl)cc4)n3)noc1-2
  AC40: 6.07 µM

## CC1(C(=O)NCc2cccc3ccccc23)CCN1Cc1ccc(OC(F)(F)F)cc1 (configuration not stated)
  AC40: 14.3 µM

## O=C(NC(=S)Nc1ccc(NC(=O)c2cccs2)cc1)c1cc2ccccc2o1
  AC40: 14.3 µM

## NC(N)=N/N=C/c1ccc(OCc2ccccc2Cl)cc1
  AC40: 16.4 µM

## CCCCc1c(-c2cccc(OC)c2)ncn1CCc1ccccc1OC
  AC40: 11.8 µM

## Cc1ccc2oc(-c3ccc(NC(=O)c4ccc5c(c4)OCO5)cc3)nc2c1
  AC40: 4.81 µM

## Cc1ccc(S(=O)(=O)N2C[C@@H]3N[C@H](C2)C3c2ccc(/C=C/c3ccccc3)cc2)cc1 (some centres not stated)
  AC40: 7.9 µM

## CS(=O)(=O)N1CCN(c2ccc(NC(=O)c3ccc(-c4ccc(Cl)cc4)o3)cc2)CC1
  AC40: 9.25 µM

## COc1ccc(C(=O)NC(=S)Nc2ccc3c4c(cccc24)CC3)cc1OC
  AC40: 7.84 µM

## CCCCCCCCN1C(=O)[C@@H](CC(=O)N2CCN(C(=O)c3ccco3)CC2)C[C@@]2(C(=O)OC)C1=C[C@H](C1CCCC1)O[C@@H]2C
  AC40: 12 µM

## CCn1c(O)c(/C=N/N=C/c2ccc(OC)cc2)c2cc(C3=NNC(=O)CC3)ccc21
  AC40: 4.21 µM

## COC(=O)C1=C(C)N(Cc2ccc(C(F)(F)F)cc2)C(=NCc2ccccc2)NC1c1ccc(Cl)cc1 (configuration not stated)
  AC40: 8.24 µM

## COc1ccc(CNCC(O)COc2ccc(C(C)(C)c3ccccc3)cc2)cc1 (configuration not stated)
  AC40: 6.55 µM

## COc1cc2nc(N3CCN(c4cc(C)ccc4C)CC3)nc(N)c2cc1OC
  AC40: 8.44 µM

## CCc1nc(N)nc2c1C(=O)CC(C)(C)C2
  AC40: > 35 µM (inactive)

## CC(C)(C)c1ccccc1OCC(O)CN1CCN(c2ccccn2)CC1 (configuration not stated)
  AC40: 13.7 µM

## CCn1c(SCc2cc(=O)[nH]c3ccccc23)nc2c1c(=O)n(C)c(=O)n2C
  AC40: 1.42 µM

## CCOC(=O)c1cc2sccc2n1CC(=O)N1c2ccccc2CC1C (configuration not stated)
  AC40: 3.59 µM

## COc1ccccc1CCn1cnc(-c2ccc(F)cc2)c1CC(C)C
  AC40: 7.14 µM

## CCOCCCNC(=O)c1oc2ccc3c(c2c1C)C(O)CC(C)(C)O3 (configuration not stated)
  AC40: 5.92 µM

## CC(C)n1nc(C(=O)Nc2ccccc2N2CCOCC2)c2ccccc2c1=O
  AC40: 8.07 µM

## Cc1cc2c(cc1C)CSC(c1c(O)ccc3ccccc13)SC2
  AC40: 10.9 µM

## Cc1cccc(OCC(=O)Nc2ccc(NC(=O)c3ccco3)cc2)c1
  AC40: 17.8 µM

## CCOC(=O)[C@]12Cc3c(cc(OC)c(OC)c3OC)[C@H]1N(C1CCCCC1)C(=O)c1cc(OC)ccc12
  AC40: 15.5 µM

## COC(=O)c1ccc2c(c1)NC(=O)C(N(CC(C)C)CC(C)C)S2 (configuration not stated)
  AC40: 5.29 µM

## COc1ccccc1CCn1cnc(-c2ccccc2OC)c1CC(C)C
  AC40: 14.6 µM

## COc1cccc(-c2sc3ccccc3c2-c2ccc(OCCN(C)C)cc2)c1
  AC40: 3.37 µM

## OC(c1ccccc1)(c1ccccc1)C1CCN(CCCOc2cccc(OC(F)(F)F)c2)CC1
  AC40: 5.24 µM

## CCN=C1NC(c2ccc(C(F)(F)F)cc2)C(C(=O)OC)=C(C)N1Cc1cccc(C(F)(F)F)c1 (configuration not stated)
  AC40: 14.3 µM

## O=C(c1ccc(F)cc1)N1C[C@@H]2N[C@H](C1)C2c1ccc(/C=C/c2ccccc2)cc1 (some centres not stated)
  AC40: 6.56 µM

## O=c1[nH]nc(-c2ccccc2)c2ccccc12
  AC40: 22.5 µM

## CCOc1ccc(CCNC(=O)COc2cc(=O)n(C)c3ccccc23)cc1OCC
  AC40: 22.6 µM

## Clc1ccc(/C=N/NC2=Nc3cccc4cccc2c34)cc1
  AC40: 2.13 µM

## CCC1OC(C2CC2)CC2=C1C(=O)OC(C)(C)O2 (configuration not stated)
  AC40: 4.79 µM

## NS(=O)(=O)c1ccc(NC(=S)N2CCN(c3ccc(Cl)c(Cl)c3)CC2)cc1
  AC40: 9.46 µM

## COC(=O)c1ccc(C(=O)Nc2cc(Cl)ccc2Cl)cc1NC(=O)c1ccccc1C
  AC40: 2.43 µM

## O=c1c2ccccc2sn1-c1ccccc1F
  AC40: 3.87 µM

## NC[C@H](Cc1ccccc1)NCCc1cc(C(F)(F)F)cc(C(F)(F)F)c1
  AC40: 14.9 µM

## CC(=NC(C)c1ccccc1)c1c(O)[nH]c(=O)[nH]c1=O (configuration not stated)
  AC40: 15 µM

## CC(C)C(Cl)=NOC(=O)Nc1ccc(S(N)(=O)=O)cc1
  AC40: 10.2 µM

## CC(=O)Nc1sc(N/N=C\c2cccc(Cl)c2)nc1-c1cccs1
  AC40: 6.6 µM

## CCCCCCN1C[C@H](n2cc(C3CC3)nn2)[C@@H](O)C[C@@H]1c1ccc(C)cc1
  AC40: 7.33 µM

## CN(C)CCOc1ccc(-c2c(-c3ccccc3)sc3ccccc23)cc1
  AC40: 2.75 µM

## O=c1c2ccccc2sn1-c1ccccc1
  AC40: 3.25 µM

## COc1ccccc1CCn1cnc(-c2cccc(F)c2)c1CC(C)C
  AC40: 11.3 µM

## CC(C)Cn1c(=O)n(C)c(=O)c2[nH]cnc21
  AC40: 9.51 µM

## CCCn1c2ccccc2c2cn[nH]c(=O)c21
  AC40: 16.4 µM

## CC1(C(=O)NS(=O)(=O)c2ccc(Cl)s2)CCN1C(=O)C1(c2ccc(Cl)cc2)CCC1 (configuration not stated)
  AC40: > 35 µM (inactive)

## C=CCn1cc(Cl)cc(C(=O)Nc2ccccc2)c1=O
  AC40: 19.7 µM

## CC(=O)c1nn(-c2ccc(Br)cc2)cc1C(=O)c1ccccc1
  AC40: 8.45 µM
